Source: ChEMBL document CHEMBL1145572, “Analogues of N-hydroxy-N'-phenylthiourea and N-hydroxy-N'-phenylurea as inhibitors of tyrosinase and melanin formation” (Bioorg Med Chem Lett, 2008)
pIC50: −log10 of the molar value. Calls of active or inactive are those of the source. No cut-off for these calls is given here.

What was measured:
B16 [1] = assay: Inhibition of melanin production in mouse B16 cells at 100 uM; assay type: functional
Tyrosinase = molecular target: T1, Tyrosinase (Agaricus bisporus, UniProt O42713)
T1 sequence (O42713 whole entry): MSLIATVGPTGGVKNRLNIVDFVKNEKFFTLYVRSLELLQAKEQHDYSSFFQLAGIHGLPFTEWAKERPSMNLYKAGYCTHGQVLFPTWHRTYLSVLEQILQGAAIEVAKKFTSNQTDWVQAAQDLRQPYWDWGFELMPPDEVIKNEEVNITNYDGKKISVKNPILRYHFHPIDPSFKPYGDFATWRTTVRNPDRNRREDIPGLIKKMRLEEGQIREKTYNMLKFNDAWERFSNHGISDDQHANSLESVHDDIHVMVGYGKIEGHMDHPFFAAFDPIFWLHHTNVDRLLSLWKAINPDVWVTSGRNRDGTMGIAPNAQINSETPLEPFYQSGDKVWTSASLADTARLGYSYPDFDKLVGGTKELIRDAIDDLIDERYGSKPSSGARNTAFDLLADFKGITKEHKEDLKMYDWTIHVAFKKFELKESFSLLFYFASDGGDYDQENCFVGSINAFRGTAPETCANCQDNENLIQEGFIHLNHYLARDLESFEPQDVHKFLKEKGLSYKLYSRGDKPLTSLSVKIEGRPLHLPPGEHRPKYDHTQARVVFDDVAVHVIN
Description: Inhibition of mushroom tyrosinase

B16 [2] = assay: Cytotoxicity against mouse B16 cells at 100 uM; assay type: functional, cell-based
B16 [3] = assay: Inhibition of melanin production in mouse B16 cells at 50 uM; assay type: functional

| pIC50 (Tyrosinase) | SMILES | Activity (B16 [1]) | Activity (B16 [2]) | inhibition at 100 µM (B16 [1]) [%] | inhibition at 50 µM (B16 [3]) [%] |
| --- | --- | --- | --- | --- | --- |
| 5.20 | O=C(NO)Nc1ccc(OCc2ccccc2)cc1 | inactive | inactive |  |  |
| < 3.00 | ONC(=S)Nc1ccccc1 | inactive | inactive |  |  |
| 5.57 | O=C(NO)Nc1ccc(Br)cc1 |  | inactive | 75.5 |  |
| 3.11 | CN(O)C(=O)Nc1ccc([N+](=O)[O-])cc1 |  | inactive | 82 |  |
| 4.57 | O=C(NO)Nc1ccc(NC(=O)NO)cc1 |  | inactive | 66 |  |
| < 3.00 | CONC(=S)Nc1ccc([N+](=O)[O-])cc1 |  | inactive |  | 75.5 |
| < 3.00 | NC(=O)Nc1ccccc1 | inactive |  |  |  |
| < 3.00 | CCCCOc1ccc(NC(=O)NO)cc1 | inactive | inactive |  |  |
| 4.43 | Oc1ccc(O)cc1 [HYDROQUINONE] |  |  |  |  |
| 5.37 | O=C(NO)Nc1ccc(C(F)(F)F)cc1 |  | inactive | 79.3 |  |
| 4.59 | CONC(=S)Nc1ccc2ccccc2c1 |  | inactive | 85 |  |
| 4.39 | O=C(NO)Nc1ccc(O)cc1 |  | inactive | 19 |  |
| 5.59 | O=C(NO)Nc1ccc([N+](=O)[O-])cc1 |  | inactive | 86 |  |
| 6.54 | O=C(NO)Nc1ccccc1 |  | inactive | 78 |  |
| 4.15 | CC(C)(C)[Si](C)(C)ONC(=O)Nc1ccccc1 | inactive | inactive |  |  |
| 4.80 | CN(C(=O)NO)c1ccccc1 |  | inactive |  |  |
| < 3.00 | CONC(=O)Nc1ccccc1 | inactive | inactive |  |  |
|  | OC[C@H]1O[C@@H](Oc2ccc(O)cc2)[C@H](O)[C@@H](O)[C@@H]1O [ARBUTIN] |  |  | 43.8 |  |
| < 3.00 | COc1ccc(NC(=O)NO)c(OC)c1 | inactive | inactive |  |  |
| 3.77 | CC(=O)N(O)C(=O)Nc1ccccc1 |  | inactive |  |  |
| < 3.00 | CN(O)C(=O)Nc1ccc(Br)cc1 | inactive | inactive |  |  |
| < 3.00 | CONC(=O)N(C)c1ccccc1 |  | inactive |  |  |
| < 3.00 | CN(O)C(=O)Nc1ccccc1 | inactive | inactive |  |  |
| 4.49 | COc1ccc(NC(=O)NO)cc1 | inactive | inactive |  |  |

| SMILES | pIC50 (Tyrosinase) | Activity (B16 [1]) | Activity (B16 [2]) | inhibition at 100 µM (B16 [1]) [%] | inhibition at 50 µM (B16 [3]) [%] |
| --- | --- | --- | --- | --- | --- |
| CN(O)C(=O)N(C)c1ccccc1 | < 3.00 |  | inactive |  |  |
